# According to patent US9695155B2, “Herbicidal substituted pyrimidinyloxy benzene compounds” (E. I. DU PONT DE NEMOURS AND COMPANY, priority 2013, dated 2017):
# What was measured:
# pigweed = assay: Test A preemergence; assay type: in vivo, Amaranthus retroflexus
# Method in brief: (§1)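 Injury scores run from 0, no effect, to 100, complete control, judged by eye against untreated plants roughly 10 days after treatment. Chemicals carried a surfactant in a non-phytotoxic solvent and went onto loam–sand soil preemergence or onto one- to two-leaf seedlings postemergence.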
# wheat = assay: Test A preemergence; assay type: in vivo, Triticum aestivum; details: Triticum aestivum, pre-emergence, 240 h, read-out: Wheat plant response rating
# Method in brief: as §1
# large (Lg) crabgrass = assay: Test A postemergence; assay type: in vivo, Digitaria sanguinalis; details: Digitaria sanguinalis, post-emergence, 240 h
# Method in brief: as §1
# giant foxtail = assay: Test A postemergence; assay type: in vivo, Setaria faberii
# Method in brief: as §1
# velvetleaf = assay: Test A postemergence; assay type: in vivo, Abutilon theophrasti; details: Abutilon theophrasti, post-emergence, 240 h
# Method in brief: as §1
# corn = assay: Test A postemergence; assay type: in vivo, Zea mays
# Method in brief: as §1
# galium = assay: Test C postemergence; assay type: in vivo, Galium aparine
# Method in brief: (§2)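 Sown in loam/sand → sprayed pre-emergence; or grown to 1–4 leaves in peat mix → sprayed post-emergence. Same solvent/surfactant formulation both ways. Greenhouse 13–15 d. Score 0–100 visual.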
# lambsquarters = assay: Test C postemergence; assay type: in vivo, Chenopodium album
# Method in brief: as §2
# morningglory = assay: Test C postemergence; assay type: in vivo, Ipomoea coccinea
# Method in brief: as §2
# kochia = assay: Test C postemergence; assay type: in vivo, Kochia scoparia
# Method in brief: as §2
# [1] = 1000 g ai/ha, 0 to 100 scale, 0 no effect, 100 complete control
# [2] = 16 g ai/ha, postemergence, 0 is no effect, 100 is complete control
# [3] = 31 g ai/ha, postemergence, visual rating, scale 0 to 100 (0 no effect, 100 complete control), 13 to 15 days
# [4] = 125 g ai/ha, postemergence, visual rating, scale 0 to 100 (0 no effect, 100 complete control)
# [5] = Postemergence, 62 g ai/ha, scale 0 to 100 (0 no effect, 100 complete control)
# [6] = 500 g ai/ha, 0 to 100 scale where 0 is no effect and 100 is complete control
# [7] = 125 g ai/ha, 0 to 100 scale, 0 no effect, 100 complete control
# [8] = Postemergence, 62 g ai/ha, scale 0 to 100 (0 no effect, 100 complete control), 13 to 15 days
smiles,measurement,setting,value
"Fc1cnc(Oc2ccccc2-n2cc(Br)cn2)nc1 [Compound 10, 2-[2-(4-bromo-1H-pyrazol-1-yl)phenoxy]-5-fluoropyrimidine]",pest or weed control at 125 g/ha,"pigweed; Amaranthus retroflexus, pre-emergence, 240 h, 125 g ai/ha, 0 to 100 scale where 0 is no effect and 100 is complete control, read-out: Pigweed plant response rating",100%
same,pest or weed control at 500 g/ha,"pigweed; Amaranthus retroflexus, pre-emergence, 240 h, 500 g ai/ha, 0 to 100 scale, 0 no effect, 100 complete control, approx. 10 days, read-out: Pigweed plant response rating",100%
same,plant injury at 125 g/ha,"wheat; 125 g ai/ha, 0 to 100 scale where 0 is no effect and 100 is complete control",0%
same,plant injury at 500 g/ha,"wheat; 500 g ai/ha, 0 to 100 scale, 0 no effect, 100 complete control, approx. 10 days",20%
same,pest or weed control at 125 g/ha,"large (Lg) crabgrass; 125 g ai/ha, 0 to 100 scale where 0 is no effect and 100 is complete control, read-out: Plant response rating, Crabgrass, Large",50%
same,pest or weed control at 500 g/ha,"large (Lg) crabgrass; 500 g ai/ha, 0 to 100 scale, 0 no effect, 100 complete control, read-out: Plant response rating Crabgrass, Large",80%
same,pest or weed control at 125 g/ha,"giant foxtail; Setaria faberi, post-emergence, 240 h, 125 g ai/ha, 0 to 100 scale where 0 is no effect and 100 is complete control, read-out: Plant response rating, Foxtail, Giant",50%
same,pest or weed control at 500 g/ha,"giant foxtail; Setaria faberi, post-emergence, 240 h, 500 g ai/ha, 0 to 100 scale, 0 no effect, 100 complete control, read-out: Plant response rating Foxtail, Giant",90%
same,pest or weed control at 125 g/ha,"velvetleaf; 125 g ai/ha, 0 to 100 scale where 0 is no effect and 100 is complete control, read-out: Plant response rating, Velvetleaf",100%
same,pest or weed control at 500 g/ha,"velvetleaf; 500 g ai/ha, 0 to 100 scale, 0 no effect, 100 complete control, read-out: Plant response rating Velvetleaf",100%
same,"Corn plant response rating (crop injury, 0 = no effect, 100 = complete kill) at 125 g/ha","corn; Zea mays, post-emergence, 240 h, 125 g ai/ha, 0 to 100 scale where 0 is no effect and 100 is complete control",20%
same,plant injury at 500 g/ha,"corn; Zea mays, post-emergence, 240 h, 500 g ai/ha, 0 to 100 scale, 0 no effect, 100 complete control, read-out: Plant response rating Corn",50%
same,pest or weed control at 125 g/ha,"galium; Galium, post-emergence, 125 g ai/ha, postemergence, read-out: Plant response rating (0 to 100), Galium",80%
same,pest or weed control at 250 g/ha,"galium; Galium, post-emergence, 250 g ai/ha, postemergence, read-out: Plant response rating (0 to 100), Galium",95%
same,pest or weed control at 31 g/ha,"galium; Galium, post-emergence, Postemergence, 31 g ai/ha, scale 0 to 100 (0 no effect, 100 complete control), 13 to 15 days, read-out: Plant response rating, Galium",65%
same,pest or weed control at 62 g/ha,"galium; Galium, post-emergence, Postemergence, 62 g ai/ha, scale 0 to 100 (0 no effect, 100 complete control), read-out: Plant response rating, Galium",80%
same,pest or weed control at 125 g/ha,"lambsquarters; Chenopodium album, post-emergence, 125 g ai/ha, postemergence, read-out: Plant response rating (0 to 100), Lambsquarters",75%
same,pest or weed control at 250 g/ha,"lambsquarters; Chenopodium album, post-emergence, 250 g ai/ha, postemergence, read-out: Plant response rating (0 to 100), Lambsquarters",98%
same,pest or weed control at 31 g/ha,"lambsquarters; Chenopodium album, post-emergence, Postemergence, 31 g ai/ha, scale 0 to 100 (0 no effect, 100 complete control), 13 to 15 days, read-out: Plant response rating, Lambsquarters",55%
same,pest or weed control at 62 g/ha,"lambsquarters; Chenopodium album, post-emergence, Postemergence, 62 g ai/ha, scale 0 to 100 (0 no effect, 100 complete control), read-out: Plant response rating, Lambsquarters",55%
same,pest or weed control at 125 g/ha,"morningglory; Ipomoea, post-emergence, 125 g ai/ha, postemergence, read-out: Plant response rating (0 to 100), Morningglory",65%
same,pest or weed control at 250 g/ha,"morningglory; Ipomoea, post-emergence, 250 g ai/ha, postemergence, read-out: Plant response rating (0 to 100), Morningglory",85%
same,pest or weed control at 31 g/ha,"morningglory; Ipomoea, post-emergence, Postemergence, 31 g ai/ha, scale 0 to 100 (0 no effect, 100 complete control), 13 to 15 days, read-out: Plant response rating, Morningglory",40%
same,pest or weed control at 62 g/ha,"morningglory; Ipomoea, post-emergence, Postemergence, 62 g ai/ha, scale 0 to 100 (0 no effect, 100 complete control), read-out: Plant response rating, Morningglory",65%
same,pest or weed control at 125 g/ha,"kochia; Bassia scoparia, post-emergence, 125 g ai/ha, postemergence, read-out: Plant response rating (0 to 100), Kochia",95%
same,pest or weed control at 250 g/ha,"kochia; Bassia scoparia, post-emergence, 250 g ai/ha, postemergence, read-out: Plant response rating (0 to 100), Kochia",98%
same,pest or weed control at 31 g/ha,"kochia; Bassia scoparia, post-emergence, Postemergence, 31 g ai/ha, scale 0 to 100 (0 no effect, 100 complete control), 13 to 15 days, read-out: Plant response rating, Kochia",20%
same,pest or weed control at 62 g/ha,"kochia; Bassia scoparia, post-emergence, Postemergence, 62 g ai/ha, scale 0 to 100 (0 no effect, 100 complete control), read-out: Plant response rating, Kochia",40%
Fc1cccc(Oc2ncc(Cl)cn2)c1-n1cc(C2CC2)nn1 [Compound 155],Pigweed plant response rating,"pigweed; 1000 g ai/ha, 0 to 100 scale, 0 no effect, 100 complete control, approx. 10 days",100
same,"Plant response rating, Foxtail, Giant",giant foxtail; [1],100
same,"Plant response rating, Corn",corn; [1],100
same,"Plant response rating (0 to 100), Galium",galium; [2],75
same,Galium plant response rating,galium; [3],95
same,"Plant response rating, Galium",galium; [4],100
same,"Plant response rating, Galium",galium; [5],98
same,"Plant response rating (0 to 100), Lambsquarters",lambsquarters; [2],65
same,Lambsquarters plant response rating,lambsquarters; [3],90
same,"Plant response rating, Lambsquarters",lambsquarters; [4],98
same,"Plant response rating, Lambsquarters",lambsquarters; [5],98
same,"Plant response rating (0 to 100), Morningglory",morningglory; [2],70
same,Morningglory plant response rating,morningglory; [3],80
same,"Plant response rating, Morningglory",morningglory; [4],85
same,"Plant response rating, Morningglory",morningglory; [5],80
same,"Plant response rating (0 to 100), Kochia",kochia; [2],80
same,Kochia plant response rating,kochia; [3],98
same,"Plant response rating, Kochia",kochia; [4],100
same,"Plant response rating, Kochia",kochia; [5],98
N#Cc1cccc(Oc2ncc(Cl)cn2)c1-n1cc(-n2ccc(C(F)(F)F)n2)cn1 [Compound 284],Pigweed plant response rating (0 to 100 scale),pigweed; 125 g ai/ha,100
same,Pigweed plant response rating,pigweed; [6],100
same,"Plant response rating, Foxtail, Giant",giant foxtail; [7],90
same,"Plant response rating, Foxtail, Giant",giant foxtail; [6],90
same,"Plant response rating, Corn",corn; [7],20
same,"Plant response rating, Corn",corn; [6],40
same,Galium plant response rating,galium; [3],100
same,"Plant response rating, Galium",galium; [4],85
same,"Plant response rating (0 to 100), Galium","galium; 250 g ai/ha, postemergence",100
same,"Plant response rating, Galium",galium; [8],85
same,Lambsquarters plant response rating,lambsquarters; [3],70
same,"Plant response rating, Lambsquarters",lambsquarters; [4],98
same,"Plant response rating (0 to 100), Lambsquarters","lambsquarters; 250 g ai/ha, postemergence",98
same,"Plant response rating, Lambsquarters",lambsquarters; [8],85
same,Morningglory plant response rating,morningglory; [3],70
same,"Plant response rating, Morningglory",morningglory; [4],85
same,"Plant response rating (0 to 100), Morningglory","morningglory; 250 g ai/ha, postemergence",100
same,"Plant response rating, Morningglory",morningglory; [8],100
same,Kochia plant response rating,kochia; [3],100
same,"Plant response rating, Kochia",kochia; [4],100
same,"Plant response rating (0 to 100), Kochia","kochia; 250 g ai/ha, postemergence",100
same,"Plant response rating, Kochia",kochia; [8],100
